Data as given in patent US7741520B2, “Sulfonanilide analogs as selective aromatase modulators (SAMs)” (The Ohio State University Research Foundation, priority 2006, dated 2010).

Key:
[1] = tested on: CYP19 mRNA expression in SK-BR-3 cells; assay: CYP19 mRNA expression by real-time RT-PCR in SK-BR-3 cells; format: cell-based, human; details: 5 μM, 24 h (FIG. 14)
Description: (§1) RNA Extraction. Total RNA was isolated using the TRIzol reagent according to the manufacturer's protocol. Total RNA pellets were dissolved in DNase- and RNase-free water and quantitated using a spectrophotometer. The quality of RNA samples was determined by electrophoresis through agarose gels and staining with ethidium bromide; the 18S and 28S rRNA bands were visualized under ultraviolet light.
(§2) cDNA Synthesis. Isolated total RNA (2 μg) was treated with DNase I Amplification grade, according to the recommended protocol to eliminate any DNA before reverse transcription. Treated total RNA was denatured at 65° C. for 5 min in the presence of 2.5 ng/μL random hexamers and 0.5 mM dNTP mix. The samples were snap-cooled on ice and centrifuged briefly. Complementary DNA (cDNA) was synthesized using Superscript II reverse transcriptase according to the recommended protocol. Briefly, the reactions were conducted in the presence of 1× First-Strand Buffer and 20 mM DTT at 42° C. for 50 min and consequently inactivated at 70° C. for 15 min. The cDNA generated was used as a template in realtime PCR reactions.
Real-Time PCR. Real-time PCR was performed using the Opticon 2 system from MJ Research (Waltham, Mass.). For the CYP19 total gene the PCR reaction mixture consisted of Taqman Universal PCR Master Mix (Applied Biosystems), 600 nM of CYP19 primer (sense: 5′-TGTCTCTTTGTTCTTCATGCTATTTCTC-3′ (SEQ ID NO: 1); antisense: 5′-TCACCAATAACAGTCTGGATTTCC-3′) (SEQ ID NO: 2); 250 nM Taqman probe (6FAM 5′-TGCAAAGCACCCTAATGTTGAAGAGGCAAT-3′TAMRA) (SEQ ID NO: 3) (Invitrogen), 18S rRNA (Applied Biosystems, Foster City, Calif.), and 2.0 μL of each RT sample in a final volume of 20 μL. The Taqman probe was designed to anneal to a specific sequence of the aromatase gene between the forward and the reverse primers. Cycling conditions were 50° C. for 2 mm and 95° C. for 10 mm, followed by 50 cycles at 95° C. for 15 s and 60° C. for 1 mm.
as §1, with “extraction.” for “Extraction.”, “DNase,” for “DNase- and”
as §2, with “synthesis.” for “Synthesis.”, “real-time” for “realtime”
Real-time PCR. Real-time PCR was performed using the Opticon™ 2 system from MJ Research (Waltham, Mass.). For the CYP19 total gene the PCR reaction mixture consisted of Taqman® Universal PCR Master Mix (Applied Biosystems), 600 nM of CYP19 primer (sense: 5′-TGTCTCTTTGTTCTTCATGCTATTTCTC-3′ (SEQ ID NO: 1); antisense: 5′-TCACCAATAACAGTCTGGATTTCC-3′) (SEQ ID NO: 2); 250 nM Taqman probe (6FAM 5′-TGCAAAGCACCCTAATGTTGAAGAGGCAAT-3′TAMRA) (SEQ ID NO: 3) (Invitrogen), and 2.0 μL of each cDNA sample in a final volume of 20 μL. […]

Row | melting point [°C] | SMILES | CYP19 gene expression [1]
1 | 168 to 169 | CN(c1ccc([N+](=O)[O-])cc1OCc1ccc(F)cc1)S(C)(=O)=O [Compound 33c, N-methyl-N-[2-(4′-fluorobenzyloxy)-4-nitrophenyl]methanesulfonamide] | significantly decreased CYP19 gene expression
2 | – | CN(c1ccc([N+](=O)[O-])cc1OCc1ccccc1)S(C)(=O)=O [Compound 26f, N-methyl-N-(2-benzyloxy-4-nitrophenyl) methanesulfonamide] | significantly decreased CYP19 gene expression
3 | 96 to 98 | Cc1ccc(COc2cc([N+](=O)[O-])ccc2N(C)S(C)(=O)=O)cc1 [Compound 30c, N-methyl-N-[2-(4′-methylbenzyloxy)-4-nitrophenyl]methanesulfonamide] | –
4 | 119 to 121 | CN(c1ccc([N+](=O)[O-])cc1OCc1ccc2ccccc2c1)S(C)(=O)=O [Compound 28c, N-methyl-N-[2-(β-naphthylmethoxy) 4-nitrophenyl]methanesulfonamide] | significantly decreased CYP19 gene expression
5 | – | CN(c1ccc([N+](=O)[O-])cc1OCc1ccc([N+](=O)[O-])cc1)S(C)(=O)=O [Compound 27c, N-methyl-N-[2-(4′-nitrobenzyloxy)-4-nitrophenyl]methanesulfonamide] | significantly decreased CYP19 gene expression
6 | 128 to 129 | CN(c1ccc([N+](=O)[O-])cc1OCc1ccccc1-c1ccccc1)S(C)(=O)=O [Compound 29c, N-methyl-N-[2-(2′-phenylbenzyloxy)-4-nitrophenyl]methanesulfonamide] | significantly decreased CYP19 gene expression
